Assay results as given in publication PMC7235792, “Effect of the Most Relevant CYP3A4 and CYP3A5 Polymorphisms on the Pharmacokinetic Parameters of 10 CYP3A Substrates” (Biomedicines, 2020).
One block for each compound: values may come before it.

Experiments:
[1] = human, in vivo
[2] = CYP3A5 *1/*1 subjects compared to *1/*3 and *3/*3; population PK model; cited from earlier work

Structure (SMILES): O=C1CCc2ccc(OCCCCN3CCN(c4cccc(Cl)c4Cl)CC3)cc2N1 [aripiprazole]
association of CYP3A polymorphisms with PK parameters [1]: no significant association

Structure (SMILES): Cc1cc2c(s1)Nc1ccccc1N=C2N1CCN(C)CC1 [olanzapine]
association of CYP3A polymorphisms with PK parameters [1]: no significant association

Structure (SMILES): OCCOCCN1CCN(C2=Nc3ccccc3Sc3ccccc32)CC1 [quetiapine]
increased Cl [2]: 29%

Now from value to compound, other results behind:

AUC in CYP3A5 PM [1]: higher AUC
Structure (SMILES): CCOC(=O)C1=C(COCCN)NC(C)=C(C(=O)OC)C1c1ccccc1Cl (centres unmarked) [amlodipine]

AUC in CYP3A4 mutated alleles carriers (tendency) [1]: lower AUC | Cl in CYP3A4 mutated alleles carriers (tendency) [1]: higher Cl
Structure (SMILES): CC(C)C(=O)Oc1ccc(CO)cc1[C@H](CCN(C(C)C)C(C)C)c1ccccc1 [fesoterodine]

association of CYP3A polymorphisms with PK parameters [1]: no significant association
Structure (SMILES): COC(c1ccccc1)(c1ccccc1)[C@H](Oc1nc(C)cc(C)n1)C(=O)O [ambrisentan]
influence of CYP3A4 or CYP3A5 polymorphisms on elimination [1]: it does not appear that CYP3A4 or CYP3A5 polymorphisms influence its elimination
